# From the OligoGym collection
# Strand notation (5' to 3'): a small letter for the sugar, then the base; units joined by * are phosphorothioate-linked, units joined directly phosphodiester-linked; [ ] holds rarer units or linkages, { } end groups; capitals alone tell only the bases. HELM strings list units from the 5' end as sugar, base in round brackets, then linkage (d deoxyribose, r ribose, m 2'-O-methyl, p phosphodiester). [sp] = phosphorothioate linkage; d = 2'-deoxy (DNA); m = 2'-O-methyl
# Tests used:
# CTNNB1 [1] = experiment: HEK293-TLR7, 100 nM ASO, then resiquimod
# CTNNB1 [2] = experiment: HEK293-TLR8, 100 nM ASO, then resiquimod
# LINC-PINT [3] = experiment: HEK293-TLR7, 100 nM ASO, then resiquimod
# LINC-PINT [4] = experiment: HEK293-TLR8, 100 nM ASO, then resiquimod
Substance,TLR7 signal (NF-kB luciferase) (% of resiquimod alone) (CTNNB1 [1]),TLR8 potentiation (NF-kB luciferase) (fold of resiquimod alone) (CTNNB1 [2]),TLR7 signal (NF-kB luciferase) (% of resiquimod alone) (LINC-PINT [3]),TLR8 potentiation (NF-kB luciferase) (fold of resiquimod alone) (LINC-PINT [4])
RNA1{m(A)[sp].m(C)[sp].m(C)[sp].m(A)[sp].m(C)[sp].d(C)[sp].d(C)[sp].d(A)[sp].d(C)[sp].d(T)[sp].d(T)[sp].d(G)[sp].d(G)[sp].d(C)[sp].d(A)[sp].m(G)[sp].m(A)[sp].m(C)[sp].m(C)[sp].m(A)}$$$$,63.4,1.71,,
RNA1{m(A)[sp].m(C)[sp].m(C)[sp].m(C)[sp].m(A)[sp].d(A)[sp].d(G)[sp].d(G)[sp].d(C)[sp].d(A)[sp].d(T)[sp].d(C)[sp].d(C)[sp].d(T)[sp].d(G)[sp].m(G)[sp].m(C)[sp].m(C)[sp].m(A)[sp].m(U)}$$$$,70.7,2.29,,
RNA1{m(A)[sp].m(C)[sp].m(C)[sp].m(C)[sp].m(A)[sp].d(C)[sp].d(T)[sp].d(T)[sp].d(G)[sp].d(G)[sp].d(C)[sp].d(A)[sp].d(G)[sp].d(A)[sp].d(C)[sp].m(C)[sp].m(A)[sp].m(U)[sp].m(C)[sp].m(A)}$$$$,65.8,2.74,,
RNA1{m(A)[sp].m(C)[sp].m(U)[sp].m(G)[sp].m(C)[sp].d(A)[sp].d(T)[sp].d(T)[sp].d(C)[sp].d(T)[sp].d(G)[sp].d(G)[sp].d(G)[sp].d(C)[sp].d(C)[sp].m(A)[sp].m(U)[sp].m(C)[sp].m(U)[sp].m(C)}$$$$,73.2,2.96,,
RNA1{m(A)[sp].m(C)[sp].m(U)[sp].m(G)[sp].m(U)[sp].d(G)[sp].d(T)[sp].d(A)[sp].d(G)[sp].d(A)[sp].d(T)[sp].d(G)[sp].d(G)[sp].d(G)[sp].d(A)[sp].m(U)[sp].m(C)[sp].m(U)[sp].m(G)[sp].m(C)}$$$$,99.8,3.43,,
RNA1{m(A)[sp].m(G)[sp].m(A)[sp].m(U)[sp].m(C)[sp].d(T)[sp].d(G)[sp].d(G)[sp].d(C)[sp].d(A)[sp].d(G)[sp].d(C)[sp].d(C)[sp].d(C)[sp].d(A)[sp].m(U)[sp].m(C)[sp].m(A)[sp].m(A)[sp].m(C)}$$$$,55.4,1.89,,
RNA1{m(A)[sp].m(U)[sp].m(U)[sp].m(U)[sp].m(U)[sp].d(A)[sp].d(A)[sp].d(G)[sp].d(C)[sp].d(A)[sp].d(T)[sp].d(A)[sp].d(T)[sp].d(T)[sp].d(A)[sp].m(A)[sp].m(A)[sp].m(A)[sp].m(A)[sp].m(G)}$$$$,47,2.37,,
RNA1{m(C)[sp].m(A)[sp].m(A)[sp].m(U)[sp].m(G)[sp].d(G)[sp].d(G)[sp].d(A)[sp].d(G)[sp].d(A)[sp].d(A)[sp].d(T)[sp].d(A)[sp].d(A)[sp].d(A)[sp].m(G)[sp].m(C)[sp].m(A)[sp].m(G)[sp].m(C)}$$$$,73.7,2.5,,
RNA1{m(C)[sp].m(A)[sp].m(C)[sp].m(C)[sp].m(C)[sp].d(A)[sp].d(C)[sp].d(T)[sp].d(T)[sp].d(G)[sp].d(G)[sp].d(C)[sp].d(A)[sp].d(G)[sp].d(A)[sp].m(C)[sp].m(C)[sp].m(A)[sp].m(U)[sp].m(C)}$$$$,91.5,1.12,,
RNA1{m(C)[sp].m(A)[sp].m(G)[sp].m(A)[sp].m(U)[sp].d(A)[sp].d(G)[sp].d(C)[sp].d(A)[sp].d(C)[sp].d(C)[sp].d(T)[sp].d(T)[sp].d(C)[sp].d(A)[sp].m(G)[sp].m(C)[sp].m(A)[sp].m(C)[sp].m(U)}$$$$,126,3.22,,
RNA1{m(C)[sp].m(A)[sp].m(G)[sp].m(A)[sp].m(U)[sp].d(T)[sp].d(A)[sp].d(C)[sp].d(A)[sp].d(A)[sp].d(T)[sp].d(T)[sp].d(A)[sp].d(A)[sp].d(T)[sp].m(U)[sp].m(A)[sp].m(G)[sp].m(A)[sp].m(G)}$$$$,80.8,2.76,,
RNA1{m(C)[sp].m(A)[sp].m(U)[sp].m(A)[sp].m(U)[sp].d(T)[sp].d(A)[sp].d(A)[sp].d(A)[sp].d(A)[sp].d(A)[sp].d(G)[sp].d(G)[sp].d(A)[sp].d(A)[sp].m(A)[sp].m(C)[sp].m(U)[sp].m(A)[sp].m(A)}$$$$,108,2.31,,
RNA1{m(C)[sp].m(C)[sp].m(A)[sp].m(C)[sp].m(C)[sp].d(C)[sp].d(A)[sp].d(C)[sp].d(T)[sp].d(T)[sp].d(G)[sp].d(G)[sp].d(C)[sp].d(A)[sp].d(G)[sp].m(A)[sp].m(C)[sp].m(C)[sp].m(A)[sp].m(U)}$$$$,86.9,0.99,,
RNA1{m(C)[sp].m(G)[sp].m(A)[sp].m(A)[sp].m(U)[sp].d(G)[sp].d(A)[sp].d(A)[sp].d(T)[sp].d(T)[sp].d(A)[sp].d(A)[sp].d(A)[sp].d(A)[sp].d(G)[sp].m(U)[sp].m(U)[sp].m(U)[sp].m(A)[sp].m(A)}$$$$,104,3.01,,
RNA1{m(C)[sp].m(G)[sp].m(U)[sp].m(G)[sp].m(U)[sp].d(C)[sp].d(T)[sp].d(G)[sp].d(G)[sp].d(A)[sp].d(A)[sp].d(G)[sp].d(C)[sp].d(T)[sp].d(T)[sp].m(C)[sp].m(C)[sp].m(U)[sp].m(U)[sp].m(U)}$$$$,67,2.89,,
RNA1{m(C)[sp].m(U)[sp].m(C)[sp].m(A)[sp].m(U)[sp].d(T)[sp].d(A)[sp].d(T)[sp].d(A)[sp].d(T)[sp].d(T)[sp].d(T)[sp].d(A)[sp].d(C)[sp].d(T)[sp].m(A)[sp].m(A)[sp].m(A)[sp].m(G)[sp].m(C)}$$$$,93.5,3.46,,
RNA1{m(C)[sp].m(U)[sp].m(C)[sp].m(U)[sp].m(U)[sp].d(G)[sp].d(A)[sp].d(A)[sp].d(G)[sp].d(C)[sp].d(A)[sp].d(T)[sp].d(C)[sp].d(G)[sp].d(T)[sp].m(A)[sp].m(U)[sp].m(C)[sp].m(A)[sp].m(C)}$$$$,93.4,2.71,,
RNA1{m(C)[sp].m(U)[sp].m(U)[sp].m(A)[sp].m(U)[sp].d(A)[sp].d(A)[sp].d(T)[sp].d(T)[sp].d(A)[sp].d(T)[sp].d(T)[sp].d(G)[sp].d(C)[sp].d(A)[sp].m(A)[sp].m(G)[sp].m(U)[sp].m(G)[sp].m(A)}$$$$,74.9,2.78,,
RNA1{m(C)[sp].m(U)[sp].m(U)[sp].m(A)[sp].m(U)[sp].d(T)[sp].d(T)[sp].d(T)[sp].d(A)[sp].d(A)[sp].d(G)[sp].d(C)[sp].d(A)[sp].d(T)[sp].d(A)[sp].m(U)[sp].m(U)[sp].m(A)[sp].m(A)[sp].m(A)}$$$$,123,2.88,,
RNA1{m(C)[sp].m(U)[sp].m(U)[sp].m(G)[sp].m(G)[sp].d(T)[sp].d(G)[sp].d(T)[sp].d(C)[sp].d(G)[sp].d(G)[sp].d(C)[sp].d(T)[sp].d(G)[sp].d(G)[sp].m(U)[sp].m(C)[sp].m(A)[sp].m(G)[sp].m(A)}$$$$,79.8,2.15,,
RNA1{m(G)[sp].m(C)[sp].m(C)[sp].m(C)[sp].m(A)[sp].d(T)[sp].d(C)[sp].d(C)[sp].d(A)[sp].d(T)[sp].d(G)[sp].d(A)[sp].d(G)[sp].d(G)[sp].d(T)[sp].m(C)[sp].m(C)[sp].m(U)[sp].m(G)[sp].m(G)}$$$$,31.7,1.46,,
RNA1{m(G)[sp].m(C)[sp].m(C)[sp].m(G)[sp].m(C)[sp].d(T)[sp].d(T)[sp].d(T)[sp].d(T)[sp].d(C)[sp].d(T)[sp].d(G)[sp].d(T)[sp].d(C)[sp].d(T)[sp].m(G)[sp].m(G)[sp].m(U)[sp].m(U)[sp].m(C)}$$$$,70.5,2,,
RNA1{m(G)[sp].m(C)[sp].m(G)[sp].m(U)[sp].m(G)[sp].d(T)[sp].d(C)[sp].d(T)[sp].d(G)[sp].d(G)[sp].d(A)[sp].d(A)[sp].d(G)[sp].d(C)[sp].d(T)[sp].m(U)[sp].m(C)[sp].m(C)[sp].m(U)[sp].m(U)}$$$$,40.7,0.91,,
RNA1{m(G)[sp].m(C)[sp].m(U)[sp].m(U)[sp].m(A)[sp].d(T)[sp].d(T)[sp].d(T)[sp].d(T)[sp].d(A)[sp].d(A)[sp].d(G)[sp].d(C)[sp].d(A)[sp].d(T)[sp].m(A)[sp].m(U)[sp].m(U)[sp].m(A)[sp].m(A)}$$$$,41.1,1.9,,
mU*mG*mU*mU*mU*dC*dC*dC*dC*dG*dG*dA*dG*dA*dG*mC*mA*mA*mU*mG,,,30.9,1.62
mU*mU*mA*mG*mC*dT*dC*dC*dT*dT*dG*dC*dC*dT*dC*mG*mU*mU*mC*mC,,,31.7,3.43
mU*mU*mC*mU*mC*dT*dC*dT*dG*dG*dT*dC*dC*dC*dA*mU*mC*mC*mC*mU,,,26.2,2.83
mU*mU*mG*mG*mC*dC*dT*dG*dT*dG*dG*dA*dT*dG*dC*mU*mU*mU*mG*mU,,,21.4,0.75
mU*mU*mU*mA*mU*dA*dT*dT*dA*dC*dA*dA*dA*dG*dC*mU*mA*mC*mU*mU,,,33.7,2.71
mU*mU*mU*mG*mA*dA*dA*dT*dT*dC*dA*dG*dA*dA*dG*mA*mU*mU*mU*mG,,,35.1,2.57
